Experimental data as given in patent US20240024350A1, “ANTI-CANCER COMPOSITION CONTAINING AURANOFIN AND MERCAPTO COMPOUND AND USE THEREOF” (SUN YAT-SEN UNIVERSITY, priority 2020, published 2024).

How the values were obtained:
[1] = system: HCT116 human colon cancer cells; assay: MTT colorimetric proliferation / cell survival assay, HCT116; details: with 30% FBS, 50 μM for TGTA, β-mercaptoethanol, mercaptoethylamine, DEDT; for Cell survival rate (%): compound alone, others not given; for Cell survival rate after addition of 10 μM auranofin (%): compound plus 10 μM auranofin, listed as Auranofin = auranofin alone
TrxR = assay: Intracellular TrxR activity in HepG2 cells (DTNB reduction); format: cell-based, human; details: mercapto compound alone 200 μM, 30% FBS
Procedure: HepG2 cells were used as a test subject.
The cells were inoculated into a 6-well plate at 2×10^5 cell/well and incubated for 24 h.
After the incubation, the cell culture medium was replaced with 30% FBS to simulate the high concentration mercapto environment under the normal physiological condition, and used as a control (without adding any reagents). The experimental group was added with 0.5 μM of auranofin for incubation at 37° C. for 30 min, and then added with the mercapto compound (DEDT, β-mercaptoethanol or mercaptoethylamine) for incubation for 30 min (final concentration of DMSO in the system was ≤1%). The incubated cells were washed for 3 times with PBS, added with 100 μL of icy lysis buffer (containing 50 mM of phosphate buffer with pH 7.4, 1 mM EDTA, and 0.10% Triton-X 100), and then lysed on ice for 5 min to collect the cell lysate.
100 μL of buffer (containing 50 mM of potassium phosphate with pH 7.4, 1 mM EDTA, and 0.2 mM NADPH) was added to the collected cell lysate (10 μg protein), 5,5′-dithiobis (2-nitrobenzoic acid) (DTNB, with a final concentration of 3 mM) was added to initiate a reaction, and the activity of TrxR was obtained on the basis of the increased OD value in 10 minutes (OD detection wavelength was 410 nm). Auranofin alone was the positive control sample, and the blank group was the negative control.

Compound	Cell survival rate (%) [1]	Cell survival rate after addition of 10 μM auranofin (%) [1]	Activity of TrxR (TrxR)
N[C@@H](CCC(=O)N[C@@H](CS)C(=O)NCC(=O)O)C(=O)O [Glutathione (GSH), Glutathione]	116 ± 6%	81 ± 7%	
NCCS [mercaptoethylamine, mercaptoethanamine]	105 ± 7%	85 ± 3%	118.2%
O=S([O-])([O-])=S.[Na+].[Na+] [sodium thiosulfate]	105 ± 5%	84 ± 8%	
CCCc1cc(=O)[nH]c(=S)[nH]1 [Propylthiouracil]	101 ± 6%	76 ± 9%	
CCN(CC)C(=S)[S-].[Na+] [DEDT, Sodium diethyldithiocarbamate]	78 ± 10%	0.9 ± 1.6%	88.6%
O[C@H](CS)[C@H](O)CS (racemic) [Dithiothreitol (DTT), Dithiothreitol]	102 ± 4%	88 ± 6%	
